One may read the melting point as the temperature, or range, at which the solid turns liquid.

The structures appear in SMILES notation. Structures can show the parent of a compound that is named as a salt. Residues, ends and D or L forms follow the SMILES beside them. *: point of attachment. Tfa = O=C(C(F)(F)F)*

Consider `Cc1cccc(C)c1N(CC(=O)NCCC(=O)O)C(=O)c1ccc(Cl)cc1`, for which the melting point was in the range of 154 to 156 °C.
As to `COC(=O)C(Cc1ccccc1)NC(=O)C(CC(=O)O)NC(=O)C(F)(F)F` (stereo not drawn) (Tfa-Asp-Phe-OMe; configuration not given here), the melting point is 150 to 151 °C.
In the case of `N#CCOc1cc2c(cc1-c1ccc(F)cc1)NC(=O)CC(c1cccc(-n3ccnc3)c1)=N2` it was 164 °C; in that of `Cc1cccc(C(=O)NN=Cc2ccc3ccccc3n2)c1`, 188 °C; in that of `NC(=O)c1[nH]nnc1O`, 191 to 192 °C.
In the case of `C=CC(c1ccccc1)c1c(C)c(NC=O)c(C)c(C)c1O` (configuration not stated) it was 144 to 145 °C; in that of `Cc1ccccc1-n1c(-c2sc(Nc3ccc(Cl)cc3)nc2C)nc2ccccc2c1=O`, over 275 °C.
Under `C=CC(=O)NCc1cc([N+](=O)[O-])ccc1C` stands 155 to 158 °C; under `Cl[Si](Cl)(Cl)Cc1ccc(-c2ccccc2)cc1`, 60 to 65 °C.
In the case of `CCC1CCc2cc3c(cc2C1)C(=O)c1cccc(OC)c1C3=O` (configuration not stated), the melting point lay within 206 to 208 °C.
Under `CN1CCC(C(=O)Nc2ccc(CN(C)C3CCOCC3)cc2)=Cc2cc(-c3ccc(OC(F)(F)F)cc3)ccc21` stands 182 to 183 °C; under `Cc1c(OCc2ccccc2)c(=O)ccn1CCCCCC(=O)O`, 145 to 147 °C; under `COc1ccc(/C=C/C(=O)c2ccc(C(=O)O)cc2)c(-c2cccs2)c1`, 209 to 211 °C.
As to `O=C(Nc1cnccn1)Nc1cccc2c1C1CCCCN1C2=O` (configuration not stated), the melting point was 215 °C.
Under `COC(=O)c1ccc2c(c1)NCc1ccccc1O2` stands 125 to 126 °C; under `CC(=O)c1cc(Cc2ccccc2)c(O)c2ccccc12`, 139 to 141 °C.
The compound `Cc1noc(C)c1C(=O)Nc1ccc(-n2ccc(C(F)(F)F)n2)cc1` had a melting point of 177 to 178 °C.
In the case of `CCCCOP(=O)(CCCCC1(C(=O)NCCC)c2ccccc2-c2cccnc21)OCCCC` (configuration not stated) it was 131 to 133 °C.
In the case of `CCOC(=O)Nc1csc2cc(O)ccc12` it was 159 to 160 °C; in that of `O=C1Nc2cccc(Cl)c2C12COc1cc3c(cc12)CCO3` (configuration not stated), over 200 °C.
In the case of `O=C1SCC(O)=C1Cc1ccc2ccccc2c1Br` it was 205 to 206 °C; in that of `COC(=O)c1cccc(-c2nc(C(N)=O)c3[nH]c(=O)n(-c4ccccc4OC)c3n2)c1`, 265 to 266 °C; in that of `O=C(O)c1cc(-n2c(-c3ccccc3)cc3ccccc32)ccc1O`, 210 to 212 °C.
`Oc1ccc(SSc2ccc(O)cc2)cc1` came in with a melting point of 144 to 146 °C.
In the case of `CCCCCCCCCCCCCCCCOC(=O)c1cc(C(=O)OCCCCCCCCCCCCCCCC)cc(S(=O)(=O)Cl)c1` it was 48 to 50 °C; in that of `COC(=O)n1c(=O)oc2c(Cl)c(Cl)c(Cl)cc21`, 163 to 164 °C; in that of `Cc1cc(NC(=O)c2cnoc2C2CC2)ccc1Br`, 133 to 135 °C.
In the case of `CC(=O)c1ccc(Nc2ccccc2C(C)=C(Cl)Cl)cc1` it was 81 to 82 °C.
`CSC1C(=O)Nc2c(Nc3ccc(Cl)cc3)cccc21` (configuration not stated) had a melting point of 190 to 192 °C.
Under `CC1(C)OC(=O)Nc2cc(-c3cccc(Cl)c3)sc21` stands 123 to 125 °C.
Under `COc1cc(C)c2nc3cccc(OC)c3nc2c1` stands 201 to 202 °C; under `CC1Cc2cccc(S(N)(=O)=O)c2S1(=O)=O` (configuration not stated), 167 to 169 °C.
Under `O=C1OC(=O)c2cc3c(cc21)OCO3` stands 189 to 191 °C; under `CCOC(=O)c1cc(-c2cc(C)on2)[nH]n1`, 149 to 151 °C.
Take `COc1nc(C)cnc1NS(=O)(=O)c1cccnc1-c1ccc(C=CC(=O)O)cc1`: the melting point is 233 to 235 °C.
`CC(C)(CNC(=O)COCC(=O)OCOC(=O)Cc1ccccc1Nc1c(Cl)cccc1Cl)SN=O`: the melting point came to 66 °C.
Under `CC(C)(C)OC(=O)N[C@@H](Cc1ccccc1)[C@@H](O)C[C@@H](Cc1ccc(O)cc1)C(=O)N[C@H]1c2ccccc2C[C@H]1O` stands 218 to 219 °C; under `Cc1nn(-c2cccnc2)c(-c2ccccc2)c1CC(=O)O`, 197 to 199 °C; under `COC(=O)c1ccc(OCCNC(=O)C2Cc3ccccc3N2S(=O)(=O)c2ccc(-c3cccc(C(F)(F)F)c3)cc2)c(Cl)c1` (configuration not stated), 84 to 88 °C.
Under `Cc1ccc(-c2c(C#N)cnc3ccccc23)cc1` stands 96 to 97 °C.
Under `COc1ccc(N2N=C3c4cc(C)sc4S(=O)(=O)CCC3CC2=O)cc1` (configuration not stated) stands 190 to 191 °C; under `N#CNc1nccc(Oc2ccc(NC(=O)c3cc(F)cc(N4CCCCC4)c3)c3ccccc23)n1`, 160 to 162 °C.
Turning to `NC1(Cc2ccc(C(=O)Nc3ccncc3)cc2)C=CC=CC1` (configuration not stated), the melting point lay within 76.8 to 77.6 °C.
Under `Cc1ccc(Cc2cnc(NCCSCc3cc(CN(C)C)ccn3)[nH]c2=O)cn1` stands 128 to 130 °C; under `NS(=O)(=O)c1ccc(-n2nc(C(F)(F)F)cc2-c2ccc(-c3cscn3)c(O)c2)cc1F`, 224 to 226 °C.
Under `CCCCn1c(=O)n(CCN2CCC(C(=O)c3ccc(F)cc3)CC2)c(=O)c2cscc21` stands 126 to 127 °C; under `Cc1oc(C)c2c1C(=O)c1c(O)ccc(O)c1C2=O`, 255 to 256 °C; under `CC1(C)CC(Nc2nc(NC3CC(C)(C)NC(C)(C)C3)nc(N(CO)C3CC(C)(C)NC(C)(C)C3)n2)CC(C)(C)N1`, 201 to 202 °C.
On to `COC(=C1C2CC3CC1CC(Cl)(C3)C2)c1cc(O)cc(Cl)c1`, for which the melting point was determined as 130 °C.
Under `CN(C)C(=O)N1CC(Sc2ccc(Cl)cc2)C1` stands 96 to 97 °C; under `O=C1C(=O)c2ccccc2C2=C1SCC1(CCN(Cc3ccccc3F)CC1)O2`, 118 to 122 °C; under `Cc1nc2c3c(ccn2c1C)[C@@](C)(O)[C@H](O)[C@@H](c1ccccc1)N3`, 137 to 138 °C.
Under `CCCCN(CCCC)c1ccc(C=Cc2ccc(C=CC3=C(C#N)C(=C(C#N)C#N)OC3(C)C)s2)c(OC)c1` stands 191 to 192 °C.
Under `CCCCCCCCCCCCCCCCCCNC(=O)Oc1ccc([N+](=O)[O-])cc1OC(=O)NCCCCCCCCCCCCCCCCCC` stands 117 to 121 °C; under `CCNC(=O)NCCC1CCc2ccc(OC)cc21` (configuration not stated), 90 to 92 °C; under `CCCCN(CC)CC(=O)N1c2ccccc2N(C)C(=O)c2cnc(-c3ccccc3)nc21`, 107 to 109 °C.
In turn, `O=C(Nc1ccccc1)N(Cc1ccc(F)cc1)C1CCCC1` had a melting point of 120 to 121 °C.
Under `O=C(O)c1cccc(CN2CCC(c3cn(CC4CC4)c4ccccc34)CC2)c1` stands 207 °C.
In the case of `CC(=O)OC1CSC(Oc2cncc(-c3ccc(C#N)nc3)c2)C(OC(C)=O)C1OC(C)=O` (configuration not stated) it was 142 to 151 °C; in that of `CC(C)C(C)(C)C(O)C(Cc1ccc(Cl)cc1)n1cncn1` (configuration not stated), 106 °C; in that of `COc1cc(N)c2nc(OCc3ccc(Cl)cc3)ccc2c1`, 124 to 125 °C.
Under `CC(C)(C)OC(=O)N1CCNC(=O)C1Cc1ccc(OCc2ccccc2)cc1` (configuration not stated) stands 145 to 147 °C; under `C#CCOc1ccc2c(c1)c(-c1ccc(C(C)C)cc1)nc(=O)n2Cc1cccc(OC(C)(C)C)n1`, 62 to 65 °C.
Regarding `Cc1ccc(C(N)=O)cc1Br`, the melting point was 178 to 179 °C.
In the case of `CCOC(=O)c1c(C2CC2)nn(CC)c1Cc1ccc(-c2ccccc2S(N)(=O)=O)cc1` it was 54 to 58 °C.
Under `COC(=O)c1ccc2occ(-c3cc(F)ccc3F)c2c1` stands 161 to 162 °C; under `COc1ccc(C(CC(=O)O)N2Cc3ccccc3C2=O)cc1OC` (configuration not stated), 146 to 148 °C.
In the case of `CC(=O)OCC1OC(n2c(Cl)nc3cc(Cl)ccc32)C(OC(C)=O)C1OC(C)=O` (configuration not stated) it was 98 to 100 °C.
For the compound `CNc1cc(N2CCN(C(=O)N3CCN(S(=O)(=O)c4ccc(Br)cc4)CC3)CC2)ncn1`, the melting point is 219 to 221 °C.
With `O=C1N(Cc2ncccc2C(F)(F)F)c2ccccc2C12COc1ccc3nonc3c12` (configuration not stated), the melting point was in the range of 212 to 215 °C.
For the compound `Cc1c(SCCCSCc2ccc(Cl)s2)ccnc1CNc1cnc2ccccc2c1`, the melting point was in the range of 127 to 131 °C.
In the case of `COc1cc(-c2c(Cl)c(CCl)nc3sc4c(c23)CCN(Cc2ccccc2)C4)ccc1OC(C)C` it was 173 to 174 °C; in that of `O=C1CCc2c(-c3ccncc3)sc(-c3cccnc3)c21`, 214 to 216 °C; in that of `CCCC[C@@H](C)C(C(=O)O)C(=O)O`, 123 °C.
Under `COC(=O)c1cccc(-n2cccc2)n1` stands 61 °C; under `Cc1ccc(CC(C(=O)NC(Cc2ccc(C#N)cc2)C(=O)N(C)C)S(=O)(=O)Nc2cccc3ccccc23)c(C)c1` (configuration not stated), 140 °C.
With `CCOP(=O)(CNC(=O)Nc1c(C(C)C)cccc1C(C)C)OCC`, the melting point lay within 132 to 134 °C.
Under `COc1ccc(Oc2cccc3ncnc(NC(=O)Nc4ccccc4)c23)cc1` stands 231 to 232 °C.
In the case of `O=C(C=C(c1ccccc1Cl)n1cncn1)c1ccccc1` it was 79 to 81 °C.
Under `CC1Cn2c(nc3c(c2=O)CCCC3)-c2[nH]c3ccccc3c21` (configuration not stated) stands 220 to 221 °C; under `O=S(=O)(c1ccccc1)c1c[nH]c2ccc(Br)cc12`, 176 to 178 °C; under `Cc1ccc(C(=O)c2ccn(C)c2C)cc1`, 80 to 82 °C.
Compound `Cc1ccc(S(=O)(=O)N2[C@@H](CCc3nnco3)CC[C@H]2c2ccc(F)cc2)cc1` (racemic) yielded a melting point of 138 °C.
Under `CC1C(=O)CN[C@H]2c3ccc(Cl)cc3CC[C@H]12` (some centres not stated) stands 71.5 to 73 °C.
In the case of `CS(=O)(=O)c1ccc(-c2nnsc2-c2ccccc2)cc1` it was 154 to 155 °C; in that of `NC(=O)c1ccccc1CNC(=S)NC(=O)c1ccccc1`, 147 to 150 °C; in that of `ClCCOc1ccc(OCCCl)c(Cl)c1`, 135 to 137 °C.

These data come from a melting point compilation (Tetko et al.; mined from patent text by program, amines drawn as free bases though some values may be those of a salt).
